According to ChEMBL document CHEMBL1157914, “5,5'-substituted indirubin-3'-oxime derivatives as potent cyclin-dependent kinase inhibitors with anticancer activity” (J Med Chem, 2010):
pIC50: −log10 of the molar value. Activity calls are given as the source filed them. No cut-off for these calls is given here.

Experiments:
[1] = target: Cyclin-dependent kinase 2/cyclin E1 (Homo sapiens) (UniProt P24864+P24941); experiment: Inhibition of CDK2/cyclin E as percent residual activity; assay type: protein-complex assay; parameters: Residual activity / inhibition: concentration or dose not given beside the values
[2] = target: Cyclin-dependent kinase 2/cyclin E1 (Homo sapiens, UniProt P24941); experiment: Inhibition of CDK2/cyclin E; assay type: protein-complex assay
[3] = tested on: A549; experiment: Antiproliferative activity against human A549 cells after 3 days by SRB assay; assay type: functional, cell-based; details: A549, 72 h
[4] = tested on: SNU-638; experiment: Antiproliferative activity against human SNU638 cells after 3 days by SRB assay; assay type: functional, cell-based; details: SNU-638, 72 h
[5] = tested on: MCF7; experiment: Antiproliferative activity against human MCF7 cells after 3 days by SRB assay; assay type: functional, cell-based; details: MCF7, 72 h
[6] = tested on: KB; experiment: Antiproliferative activity against human KB cells after 3 days by SRB assay; assay type: functional, cell-based; details: 72 h
[7] = tested on: HT-1080; experiment: Antiproliferative activity against human HT1080 cells after 3 days by SRB assay; assay type: functional, cell-based; details: HT-1080, 72 h
[8] = Antiproliferative activity against human […] cells after 3 days by SRB assay; assay type: functional, cell-based; details: 72 h
[9] = tested on: K562; experiment: Antiproliferative activity against human K562 cells after 3 days by SRB assay; assay type: functional, cell-based; details: K562, 72 h
[10] = Selectivity ratio for CDK2/cyclinE over CDK1/cyclin B
[11] = target: Cyclin-dependent kinase 1/cyclin B1 (Homo sapiens) (UniProt P06493+P14635); experiment: Inhibition of CDK1/cyclin B at 1 uM after 40 mins by lequid scintillation counting; assay type: protein-complex assay
Sequence of Cyclin-dependent kinase 1/cyclin B1 (Homo sapiens) (P06493 whole entry, looked up): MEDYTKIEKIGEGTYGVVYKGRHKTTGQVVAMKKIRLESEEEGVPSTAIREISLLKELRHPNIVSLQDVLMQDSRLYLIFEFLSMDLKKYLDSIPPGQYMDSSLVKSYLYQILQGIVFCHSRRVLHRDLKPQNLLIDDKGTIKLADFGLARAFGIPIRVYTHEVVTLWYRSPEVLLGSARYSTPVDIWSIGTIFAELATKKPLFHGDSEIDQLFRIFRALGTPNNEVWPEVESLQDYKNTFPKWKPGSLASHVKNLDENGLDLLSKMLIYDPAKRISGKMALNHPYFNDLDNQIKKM
Sequence of Cyclin-dependent kinase 1/cyclin B1 (Homo sapiens) (P14635 whole entry, looked up): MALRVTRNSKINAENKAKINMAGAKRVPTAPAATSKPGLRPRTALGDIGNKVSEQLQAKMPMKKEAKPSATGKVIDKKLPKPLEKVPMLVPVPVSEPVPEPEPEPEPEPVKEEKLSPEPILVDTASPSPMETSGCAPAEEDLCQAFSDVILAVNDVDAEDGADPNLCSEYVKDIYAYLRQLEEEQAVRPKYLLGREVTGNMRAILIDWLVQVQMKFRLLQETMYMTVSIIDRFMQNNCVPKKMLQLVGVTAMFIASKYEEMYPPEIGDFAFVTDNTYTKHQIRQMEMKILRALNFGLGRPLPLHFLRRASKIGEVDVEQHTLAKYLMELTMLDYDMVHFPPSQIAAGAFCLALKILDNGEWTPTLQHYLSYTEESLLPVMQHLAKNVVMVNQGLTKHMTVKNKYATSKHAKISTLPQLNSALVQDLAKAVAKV

[12] = Aqueous solubility of compound in water; assay type: physicochemical; details: buffer
[13] = Solubility of compound in 2 equimolar NaOH and distilled water; assay type: physicochemical; details: buffer
[14] = Solubility of compound in 3 equimolar NaOH and 0.1 N NaHCO3 buffer; assay type: physicochemical
[15] = Solubility of compound in 3 equimolar NaOH and distilled water; assay type: physicochemical; details: buffer
[16] = target: Insulin receptor (Homo sapiens) (UniProt P06213); experiment: Inhibition of insulin receptor at 10 uM preincubated for 15 mins by HTRF assay
Sequence of Insulin receptor (Homo sapiens) (P06213 28-758 limits assumed): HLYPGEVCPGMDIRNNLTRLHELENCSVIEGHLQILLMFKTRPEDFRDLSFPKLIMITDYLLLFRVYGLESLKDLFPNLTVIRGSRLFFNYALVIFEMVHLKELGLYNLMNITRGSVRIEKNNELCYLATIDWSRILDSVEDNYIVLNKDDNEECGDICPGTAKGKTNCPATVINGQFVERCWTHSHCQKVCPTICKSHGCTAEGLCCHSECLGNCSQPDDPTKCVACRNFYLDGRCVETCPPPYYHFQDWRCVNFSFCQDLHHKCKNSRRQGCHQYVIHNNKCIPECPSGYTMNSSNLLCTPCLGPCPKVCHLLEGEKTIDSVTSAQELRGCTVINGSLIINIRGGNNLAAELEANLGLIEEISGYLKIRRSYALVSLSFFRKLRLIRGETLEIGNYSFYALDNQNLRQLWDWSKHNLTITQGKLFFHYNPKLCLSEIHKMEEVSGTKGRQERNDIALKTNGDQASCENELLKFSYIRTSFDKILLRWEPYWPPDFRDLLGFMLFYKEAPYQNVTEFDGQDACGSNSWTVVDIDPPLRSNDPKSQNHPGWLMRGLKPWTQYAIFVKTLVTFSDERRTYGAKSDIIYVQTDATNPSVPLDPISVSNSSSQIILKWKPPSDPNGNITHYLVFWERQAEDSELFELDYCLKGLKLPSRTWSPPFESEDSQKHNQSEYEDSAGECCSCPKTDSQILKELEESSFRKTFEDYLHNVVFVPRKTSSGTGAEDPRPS
Sequence of Insulin receptor (Homo sapiens) (P06213 763-1382 limits assumed): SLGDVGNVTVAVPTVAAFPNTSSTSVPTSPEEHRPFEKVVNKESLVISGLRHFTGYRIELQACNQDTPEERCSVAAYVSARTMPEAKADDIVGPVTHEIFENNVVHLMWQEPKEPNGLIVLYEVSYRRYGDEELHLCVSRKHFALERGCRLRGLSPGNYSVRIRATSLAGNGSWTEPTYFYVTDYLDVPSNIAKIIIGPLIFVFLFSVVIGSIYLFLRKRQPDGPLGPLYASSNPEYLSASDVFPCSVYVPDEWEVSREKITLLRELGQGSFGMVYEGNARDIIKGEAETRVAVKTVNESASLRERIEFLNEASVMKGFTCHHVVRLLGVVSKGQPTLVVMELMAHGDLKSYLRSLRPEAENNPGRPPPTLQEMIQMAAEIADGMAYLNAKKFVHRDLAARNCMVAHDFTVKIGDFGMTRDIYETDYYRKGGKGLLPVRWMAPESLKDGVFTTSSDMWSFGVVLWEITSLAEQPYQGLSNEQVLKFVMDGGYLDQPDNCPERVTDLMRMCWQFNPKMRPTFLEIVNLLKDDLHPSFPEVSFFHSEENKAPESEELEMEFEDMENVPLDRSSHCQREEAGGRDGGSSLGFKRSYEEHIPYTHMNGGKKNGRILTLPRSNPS

[17] = target: Hepatocyte growth factor receptor (Homo sapiens) (UniProt P08581); experiment: Inhibition of recombinant c-met at 10 uM preincubated for 15 mins by HTRF assay
[18] = tested on: Hepatocyte growth factor receptor (Homo sapiens), P08581 [M1250T]; experiment: Inhibition of recombinant Met M1250T mutant at 10 uM preincubated for 15 mins by HTRF assay
[19] = target: Inhibitor of nuclear factor kappa-B kinase subunit beta (Homo sapiens) (UniProt O14920); experiment: Inhibition of recombinant IKK-beta at 10 uM preincubated for 15 mins by HTRF assay
[20] = target: Vascular endothelial growth factor receptor 2 (Homo sapiens) (UniProt P35968); experiment: Inhibition of recombinant VEGFR2 at 10 uM preincubated for 15 mins by HTRF assay
[21] = target: High affinity nerve growth factor receptor (Homo sapiens, UniProt P04629); experiment: Inhibition of recombinant TrKa at 10 uM preincubated for 15 mins by HTRF assay
[22] = target: Phosphatidylinositol 4,5-bisphosphate 3-kinase catalytic subunit gamma isoform (Homo sapiens) (UniProt P48736); experiment: Inhibition of human PI3Kgamma at 10 uM preincubated for 15 mins by HTRF assay
Sequence of Phosphatidylinositol 4,5-bisphosphate 3-kinase catalytic subunit gamma isoform (Homo sapiens) (P48736 whole entry, looked up, canonical isoform): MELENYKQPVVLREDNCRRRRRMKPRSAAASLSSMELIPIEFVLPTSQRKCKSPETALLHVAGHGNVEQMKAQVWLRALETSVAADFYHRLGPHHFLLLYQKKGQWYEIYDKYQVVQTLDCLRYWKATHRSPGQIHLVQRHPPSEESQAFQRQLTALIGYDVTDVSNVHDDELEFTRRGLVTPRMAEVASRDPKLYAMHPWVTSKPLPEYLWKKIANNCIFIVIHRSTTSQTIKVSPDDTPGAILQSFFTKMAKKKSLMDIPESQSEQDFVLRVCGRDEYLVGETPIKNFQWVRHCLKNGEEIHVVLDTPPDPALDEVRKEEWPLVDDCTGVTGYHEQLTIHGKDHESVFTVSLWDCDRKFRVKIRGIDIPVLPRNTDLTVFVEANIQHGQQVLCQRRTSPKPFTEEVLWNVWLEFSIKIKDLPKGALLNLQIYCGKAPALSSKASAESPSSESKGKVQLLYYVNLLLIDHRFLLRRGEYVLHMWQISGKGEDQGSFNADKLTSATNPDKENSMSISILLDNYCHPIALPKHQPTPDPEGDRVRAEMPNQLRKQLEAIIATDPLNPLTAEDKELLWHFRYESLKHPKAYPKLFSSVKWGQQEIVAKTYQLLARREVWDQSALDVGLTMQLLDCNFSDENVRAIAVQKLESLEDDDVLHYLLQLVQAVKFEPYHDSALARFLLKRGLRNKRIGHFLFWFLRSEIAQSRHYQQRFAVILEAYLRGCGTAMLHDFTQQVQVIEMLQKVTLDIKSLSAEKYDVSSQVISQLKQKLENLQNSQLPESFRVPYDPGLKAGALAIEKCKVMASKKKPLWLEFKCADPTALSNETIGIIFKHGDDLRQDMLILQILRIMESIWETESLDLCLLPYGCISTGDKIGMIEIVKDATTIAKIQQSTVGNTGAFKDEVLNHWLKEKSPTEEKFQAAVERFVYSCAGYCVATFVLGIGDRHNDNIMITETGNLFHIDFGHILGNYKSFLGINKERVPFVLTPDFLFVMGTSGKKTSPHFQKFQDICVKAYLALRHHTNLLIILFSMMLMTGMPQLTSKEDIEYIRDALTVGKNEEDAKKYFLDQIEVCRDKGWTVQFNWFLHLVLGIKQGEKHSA

[23] = target: Epidermal growth factor receptor (Homo sapiens) (UniProt P00533); experiment: Inhibition of recombinant EGFR at 10 uM preincubated for 15 mins by HTRF assay
[24] = target: Aurora kinase A (Homo sapiens) (UniProt O14965); experiment: Inhibition of recombinant auroraA at 10 uM preincubated for 15 mins by HTRF assay
Sequence of Aurora kinase A (Homo sapiens) (O14965 whole entry): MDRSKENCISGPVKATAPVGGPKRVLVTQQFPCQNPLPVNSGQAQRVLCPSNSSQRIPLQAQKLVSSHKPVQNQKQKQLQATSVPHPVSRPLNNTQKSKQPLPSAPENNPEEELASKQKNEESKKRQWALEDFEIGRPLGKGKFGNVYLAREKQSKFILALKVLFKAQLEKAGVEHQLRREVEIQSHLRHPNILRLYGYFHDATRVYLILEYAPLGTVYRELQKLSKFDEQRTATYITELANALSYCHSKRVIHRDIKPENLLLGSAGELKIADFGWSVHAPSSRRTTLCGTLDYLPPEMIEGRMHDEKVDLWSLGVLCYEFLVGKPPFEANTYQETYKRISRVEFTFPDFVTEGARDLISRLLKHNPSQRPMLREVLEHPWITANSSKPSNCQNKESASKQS

[25] = target: Macrophage-stimulating protein receptor (Homo sapiens) (UniProt Q04912); experiment: Inhibition of recombinant Ron at 10 uM preincubated for 15 mins by HTRF assay
Sequence of Macrophage-stimulating protein receptor (Homo sapiens) (Q04912 25-304 limits assumed): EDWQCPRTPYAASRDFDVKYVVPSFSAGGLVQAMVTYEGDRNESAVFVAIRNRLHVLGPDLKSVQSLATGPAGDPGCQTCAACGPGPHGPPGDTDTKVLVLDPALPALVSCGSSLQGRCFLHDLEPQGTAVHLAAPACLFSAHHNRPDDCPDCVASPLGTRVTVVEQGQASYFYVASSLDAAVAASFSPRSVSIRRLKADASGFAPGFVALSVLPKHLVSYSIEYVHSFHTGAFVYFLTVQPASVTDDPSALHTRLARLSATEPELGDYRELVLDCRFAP
Sequence of Macrophage-stimulating protein receptor (Homo sapiens) (Q04912 310-1400 limits assumed): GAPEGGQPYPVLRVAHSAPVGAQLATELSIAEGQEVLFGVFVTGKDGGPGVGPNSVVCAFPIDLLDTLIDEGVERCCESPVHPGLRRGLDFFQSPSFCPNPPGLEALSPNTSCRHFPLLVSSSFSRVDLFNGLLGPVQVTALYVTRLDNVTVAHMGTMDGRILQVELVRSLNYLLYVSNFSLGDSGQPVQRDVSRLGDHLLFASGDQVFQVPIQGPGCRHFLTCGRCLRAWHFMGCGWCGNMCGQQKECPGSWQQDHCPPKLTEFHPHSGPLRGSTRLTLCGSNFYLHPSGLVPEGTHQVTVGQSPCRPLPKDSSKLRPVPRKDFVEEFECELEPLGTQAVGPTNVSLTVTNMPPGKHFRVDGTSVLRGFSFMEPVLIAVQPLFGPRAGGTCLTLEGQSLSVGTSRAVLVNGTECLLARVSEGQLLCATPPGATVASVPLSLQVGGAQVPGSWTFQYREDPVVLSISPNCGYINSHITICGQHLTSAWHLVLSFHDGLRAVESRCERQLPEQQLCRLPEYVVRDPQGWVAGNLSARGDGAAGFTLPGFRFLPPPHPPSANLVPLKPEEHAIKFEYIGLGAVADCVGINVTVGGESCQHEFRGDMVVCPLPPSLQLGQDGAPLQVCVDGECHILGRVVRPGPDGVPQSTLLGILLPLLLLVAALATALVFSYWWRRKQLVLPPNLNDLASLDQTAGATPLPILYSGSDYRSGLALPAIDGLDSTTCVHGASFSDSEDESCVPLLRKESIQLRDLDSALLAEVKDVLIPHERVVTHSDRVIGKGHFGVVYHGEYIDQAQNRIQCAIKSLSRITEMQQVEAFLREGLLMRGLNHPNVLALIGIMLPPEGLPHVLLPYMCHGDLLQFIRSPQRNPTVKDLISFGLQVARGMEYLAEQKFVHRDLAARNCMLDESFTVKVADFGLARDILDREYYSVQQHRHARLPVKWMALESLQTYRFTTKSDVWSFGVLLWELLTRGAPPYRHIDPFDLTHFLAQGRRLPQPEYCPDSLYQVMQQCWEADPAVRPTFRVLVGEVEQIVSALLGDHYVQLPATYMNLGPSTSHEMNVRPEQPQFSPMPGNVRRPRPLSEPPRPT

| Residual activity [1] | pIC50 [2] | pIC50 [3] | pIC50 [4] | pIC50 [5] | pIC50 [6] | pIC50 [7] | pIC50 [9] | Selectivity ratio [10] | SMILES | pIC50 [8] | also measured |
| --- | --- | --- | --- | --- | --- | --- | --- | --- | --- | --- | --- |
| 90% | 8.06 | < 4.70 | 5.97 | 5.97 | 5.68 | 5.41 | 6.09 | 7 | Cc1ccc2c(c1)C(=N/O)/C(=C1/C(=O)Nc3ccc([N+](=O)[O-])cc31)N2 | 5.85 |  |
|  | 5.53 | < 4.70 | < 4.70 | < 4.70 | < 4.70 | < 4.70 | < 4.70 |  | COc1ccc2c(c1)C(=N/O)/C(=C1/C(=O)Nc3ccc([N+](=O)[O-])cc31)N2 | < 4.70 | inhibition [1]: inactive; inhibition [11]: inactive |
| 90% | 8.10 | < 4.70 | 5.20 | 5.15 | 5.04 | 5.27 | 5.15 | 6 | O=C1Nc2ccc(Cl)cc2/C1=C1/Nc2ccc(F)cc2/C1=N/O | 5.48 |  |
| 90% | 8.77 | 6.24 | 6.03 | 6.04 | 6.04 | 6.19 | 6.34 | 6 | O=C1Nc2ccc([N+](=O)[O-])cc2/C1=C1/Nc2ccc(F)cc2/C1=N/O | 6.55 |  |
| 90% | 7.63 | 4.81 | 5.94 | 6.29 | 5.95 | 5.90 | 6.25 | 8 | O=C1Nc2ccc([N+](=O)[O-])cc2/C1=C1/Nc2ccc(Cl)cc2/C1=N/O | 6.48 | inhibition [16]: inactive; inhibition [17]: inactive; inhibition [18]: inactive; inhibition [19]: inactive; inhibition [20]: inactive; inhibition [21]: inactive; inhibition [22]: inactive; inhibition [23]: inactive; inhibition [24]: inactive; inhibition [25]: inactive |
|  |  | 4.77 | 5.94 | 6.02 | 5.94 | 5.84 | 6.11 |  | O=C1Nc2ccc([N+](=O)[O-])cc2/C1=C1/Nc2ccc(Br)cc2/C1=N/O | 6.35 | solubility [12]: Insoluble; solubility [13]: < 100 µg/mL; solubility [14]: < 100 µg/mL; solubility [15]: < 100 µg/mL |
| 90% | 7.95 | < 4.70 | 5.59 | 5.21 | 4.92 | 4.91 | 4.76 | 6 | O=C1Nc2ccc(Cl)cc2/C1=C1/Nc2ccc(Cl)cc2/C1=N/O | 5.73 |  |

Continued, compound first:

| SMILES | Residual activity [1] | pIC50 [2] | pIC50 [3] | pIC50 [4] | pIC50 [5] | pIC50 [6] | pIC50 [7] | pIC50 [9] | Selectivity ratio [10] | pIC50 [8] | also measured |
| --- | --- | --- | --- | --- | --- | --- | --- | --- | --- | --- | --- |
| O=C1Nc2ccc(F)cc2/C1=C1/Nc2ccc(Cl)cc2/C1=N/O | 90% | 8.00 | 4.72 | 5.64 | 5.45 | 5.44 | 5.44 | 4.83 | 6 | 5.76 |  |
| O=C1Nc2ccc(Cl)cc2/C1=C1/Nc2ccc(O)cc2/C1=N/O | 90% | 8.28 | 4.79 | 5.29 | 4.97 | 4.99 | 5.53 | 4.91 |  | 5.45 |  |
| O=C1Nc2ccc(OC(F)(F)F)cc2/C1=C1/Nc2ccc(F)cc2/C1=N/O | 90% | 7.22 | 4.70 | 5.72 | 5.39 | 5.42 | 5.40 | 5.82 | 6 | 5.82 |  |
| Cc1ccc2c(c1)C(=N/O)/C(=C1/C(=O)Nc3ccc(Cl)cc31)N2 | 90% |  | < 4.70 | 4.90 | 5.06 | 5.29 | < 4.70 | < 4.70 |  | 4.73 |  |
| O=C1Nc2ccc(OC(F)(F)F)cc2/C1=C1/Nc2ccc(Cl)cc2/C1=N/O |  | 7.12 | < 4.70 | 5.57 | 5.37 | 5.55 | 4.75 | < 4.70 | 6 | 5.42 | Activity [1]: inactive; Activity [11]: inactive |
| COc1ccc2c(c1)C(=N/O)/C(=C1/C(=O)Nc3ccc(OC(F)(F)F)cc31)N2 |  | 5.06 | < 4.70 | < 4.70 | 4.88 | 4.70 | < 4.70 | < 4.70 |  | < 4.70 | Activity [1]: inactive; Activity [11]: inactive |
| O=Nc1c(-c2c(O)[nH]c3ccc([N+](=O)[O-])cc23)[nH]c2ccccc12 |  | 8.13 |  |  |  |  |  |  |  |  | solubility [12]: Insoluble; solubility [13]: < 100 µg/mL; solubility [14]: < 100 µg/mL; solubility [15]: < 100 µg/mL |
| COc1ccc2c(c1)C(=N/O)/C(=C1/C(=O)Nc3ccc(F)cc31)N2 |  | 5.39 | 5.17 | 4.87 | < 4.70 | < 4.70 | 5.32 | 5.28 |  | 5.44 | Activity [1]: inactive; Activity [11]: inactive |
| O=C1Nc2ccc(OC(F)(F)F)cc2/C1=C1/Nc2ccc(O)cc2/C1=N/O | 90% | 8.08 | 4.77 | 5.53 | 5.37 | 5.24 | 5.64 | 5.23 |  | 5.65 |  |
| Cc1ccc2c(c1)C(=N/O)/C(=C1/C(=O)Nc3ccc(OC(F)(F)F)cc31)N2 | 90% |  | < 4.70 | < 4.70 | 5.14 | 5.09 | < 4.70 | < 4.70 |  | < 4.70 |  |
| O=C1Nc2ccc(F)cc2/C1=C1/Nc2ccc(F)cc2/C1=N/O | 90% | 8.74 | 4.99 | 5.65 | 5.18 | 4.88 | 5.06 | 4.80 | 6 | 4.87 |  |
| Cc1ccc2c(c1)C(=N/O)/C(=C1/C(=O)Nc3ccc(F)cc31)N2 | 90% |  | < 4.70 | 4.94 | 4.98 | 4.97 | < 4.70 | < 4.70 |  | < 4.70 |  |
| O=C1Nc2ccc(F)cc2/C1=C1/Nc2ccc(O)cc2/C1=N/O | 90% | 8.65 | 5.39 | 5.68 | 5.58 | 5.34 | 6.17 | 5.85 |  | 5.78 |  |
